Here are results for 1 molecule from patent US7517960B2, “Rat KCNQ5 voltage-gated potassium channel” (Wyeth, priority 2006, dated 2009).

Experiment [1] concerns rat KCNQ5/KCNQ3 heteromeric channels. Put plainly: Two-electrode voltage clamp recording of rKCNQ5 co-expressed with KCNQ3 in Xenopus laevis oocytes. The class given is cell-based. As to conditions: FIG. 2D. The source says: There is a significant increase in the current amplitude of the rat KCNQ5/KCNQ3 heteromeric channels compared with that of the rKCNQ5 or rat KCNQ3 homomeric channels. The homomeric channels here refer to those with only one type of channel subunits expressed in Xenopus laevis oocytes. In this case, it refers to either rKCNQ5 alone (FIG. 2A) or rat KCNQ3 alone (FIG. 2B). Heteromeric channels means that the functional channels are composed of subunits of both rKCNQ5 and rat KCNQ3 (FIG. 2C). It is believed that those functional channels are composed of 4 such subunits. Therefore, the functional channels are “tetramers”. If the 4 subunits are the same type (e.g. 4 rKCNQ5 subunits, or 4 rat KCNQ3 subunits), there are known as “homotetramers”. If the 4 subunits in these functional channels are different (e.g., 2 rKCNQ5+2 rat KCNQ3, or 3 rat KCNQ5+1 rat KCNQ3, etc.), they are known as “heterotetramers”.
For Examples 4 and 5, the cRNAs of rKONQ5 were injected directly into Xenopus laevis oocytes and the electrophysiological recordings were performed 48-72 hours after RNA injection using two-electrode voltage clamp recording (see Jow F and Wang K-W, Mol. Brain Res. 80:269-78 (2000) for methods). The electrodes were filled with 3 M KCI solution with resistances ranging from 0.5 to 1.5 MΩ. […]
A general note: In two-electrode clamp one electrode senses voltage and the other passes current.

The next experiment concerns rat KCNQ5. Put plainly: Two-electrode voltage clamp recording of rat KCNQ5 expressed in Xenopus laevis oocytes. The class given is cell-based. Particulars: homomeric rKCNQ5, cRNA-injected Xenopus laevis oocytes, recorded 48-72 hours after injection, FIG. 1B. On the procedure: The electrodes were filled with 3 M KCl solution with resistances ranging from 0.5 to 1.5 MΩ.
For Examples 4 and 5, the cRNAs of rKONQ5 were injected directly into Xenopus laevis oocytes and the electrophysiological recordings were performed 48-72 hours after RNA injection using two-electrode voltage clamp recording (see Jow F and Wang K-W, Mol. Brain Res. 80:269-78 (2000) for methods). The electrodes were filled with 3 M KCI solution with resistances ranging from 0.5 to 1.5 MΩ. The bath solution pf pH 7.4 was a “ND96” containing the following (in mM): NaCI, 96; KCl, 2; CaCl21.8; MgCl2 1; HEPES, 10 (see FIG. 1A).

Each structure is given as a SMILES string.

With `O=C1c2ccccc2C(Cc2ccncc2)(Cc2ccncc2)c2ccccc21` [XE991], in experiment [1], the “current amplitudes of heterotetramer channels” value was “decrease”. Besides, in the experiment on rat KCNQ5, the “KCNQ5 channel current amplitude” value was “decreased the current amplitude”.
